Reference: PubChem BioAssay (NCI)
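Interpolation was linear, between the two tested concentrations surrounding the appropriate level; five concentrations were tested over 48 hours in 96-well plates. GI50 = concentration required for 50% inhibition of growth. The concentration for full growth arrest is given as TGI.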

Legend:
Assay in all cases: DTP human tumour cell line panel, 48 h
[1] = tested on: SK-OV-3 ovarian
[2] = tested on: UO-31 renal
[3] = tested on: EKVX NSCLC
[4] = tested on: RPMI-8226 leukemia
[5] = tested on: M14 melanoma
[6] = tested on: PC-3 prostate
[7] = tested on: ACHN renal
[8] = tested on: NCI/ADR-RES ovarian
[9] = tested on: MCF7 breast
[10] = tested on: DU-145 prostate
[11] = tested on: SK-MEL-2 melanoma
[12] = tested on: HT29 colon
[13] = tested on: OVCAR-5 ovarian
[14] = tested on: LOX IMVI melanoma
[15] = tested on: SK-MEL-5 melanoma
[16] = tested on: SNB-75 CNS
[17] = tested on: IGROV1 ovarian
[18] = tested on: A498 renal
[19] = tested on: CCRF-CEM leukemia
[20] = tested on: UACC-62 melanoma
[21] = tested on: NCI-H460 lung
[22] = tested on: U251 CNS
[23] = tested on: SW-620 colon
[24] = tested on: TK-10 renal
[25] = tested on: MDA-MB-435
[26] = tested on: HL-60(TB) leukemia
[27] = tested on: HOP-62 NSCLC
[28] = tested on: CAKI-1 renal
[29] = tested on: SN12C renal
[30] = tested on: COLO 205 colon
[31] = tested on: MOLT-4 leukemia
[32] = tested on: MALME-3M melanoma
[33] = tested on: NCI-H226 lung
[34] = tested on: SF-539 CNS
[35] = tested on: UACC-257 melanoma
[36] = tested on: MDA-MB-231 breast
[37] = tested on: A549 NSCLC
[38] = tested on: HCT-116 colon
[39] = tested on: SR leukemia
[40] = tested on: T-47D breast
[41] = tested on: HOP-92 NSCLC
[42] = tested on: K-562 leukemia
[43] = tested on: OVCAR-4 ovarian
[44] = tested on: HS 578T breast
[45] = tested on: OVCAR-3 ovarian
[46] = tested on: SF-268 CNS
[47] = tested on: BT-549 breast
[48] = tested on: OVCAR-8 ovarian
[49] = tested on: SNB-19 CNS
[50] = tested on: RXF 393 renal
[51] = tested on: 786-0 renal
[52] = tested on: KM12 colon
[53] = tested on: SF-295 CNS
[54] = tested on: NCI-H522 lung
[55] = tested on: HCC-2998 colon
[56] = tested on: SK-MEL-28 melanoma
[57] = tested on: HCT-15 colon

With `O=C(CSc1nc2sc3c(c2c(=O)n1-c1ccc(Cl)cc1)CCCC3)NNC(=O)Nc1cccc(C(F)(F)F)c1` the GI50 [1] was 2.13 µM, the TGI [1] was 6.06 µM and the GI50 [2] was 2.84 µM. It also gave a TGI [2] of 12.6 µM, a GI50 [3] of 2.45 µM and a TGI [3] of 8.32 µM. The GI50 [4] was 2.87 µM, the TGI [4] was greater than 100 µM and the GI50 [5] was 3.2 µM. The TGI [5] was 11.3 µM, the GI50 [6] was 2.5 µM and the GI50 [7] was 3.67 µM. It also gave a TGI [7] of 14.9 µM, a GI50 [8] of 3.12 µM and a TGI [8] of 14 µM. It also gave a GI50 [9] of 2.4 µM, a TGI [9] of 10 µM and a GI50 [10] of 4.12 µM. For the same molecule, the TGI [10] was greater than 100 µM, the GI50 [11] was 2.21 µM and the TGI [11] was 5.75 µM. For the same molecule, the GI50 [12] was 2.33 µM, the TGI [12] was 5.85 µM and the GI50 [13] was 4.21 µM. It also gave a TGI [13] of 31 µM, a GI50 [14] of 1.68 µM and a TGI [14] of 3.33 µM. The GI50 [15] was 2.88 µM, the TGI [15] was 8.81 µM and the GI50 [16] was 3.42 µM. For the same molecule, the TGI [16] was 18.9 µM, the GI50 [17] was 5.33 µM and the TGI [17] was 25 µM. For the same molecule, the GI50 [18] was 1.96 µM, the TGI [18] was 4.85 µM and the GI50 [19] was 3.53 µM. It also gave a TGI [19] greater than 100 µM, a GI50 [20] of 2.38 µM and a TGI [20] of 7.4 µM. It also gave a GI50 [21] of 3.12 µM, a TGI [21] of 10.5 µM and a GI50 [22] of 2 µM. For the same molecule, the TGI [22] was 4.39 µM, the GI50 [23] was 3.49 µM and the TGI [23] was 15 µM. The GI50 [24] was 3.43 µM, the TGI [24] was 9.9 µM and the GI50 [25] was 2.89 µM. The TGI [25] was 8.95 µM, the GI50 [26] was 2.39 µM and the TGI [26] was 6.57 µM. It also gave a GI50 [27] of 3.3 µM, a TGI [27] of 13.5 µM and a GI50 [28] of 2.31 µM. The TGI [28] was 7.14 µM, the GI50 [29] was 2.83 µM and the TGI [29] was 8.44 µM. The GI50 [30] was 1.92 µM, the TGI [30] was 3.52 µM and the GI50 [31] was 2.9 µM. The TGI [31] was greater than 100 µM, the GI50 [32] was 2.06 µM and the TGI [32] was 5.23 µM. It also gave a GI50 [33] of 2.78 µM, a TGI [33] of 8.31 µM and a GI50 [34] of 3.46 µM. For the same molecule, the TGI [34] was 11.9 µM, the GI50 [35] was 2.36 µM and the TGI [35] was 6.96 µM. It also gave a GI50 [36] of 2.76 µM, a TGI [36] of 8.65 µM and a GI50 [37] of 2.97 µM. The TGI [37] was 12.3 µM, the GI50 [38] was 1.98 µM and the TGI [38] was 4.01 µM. It also gave a GI50 [39] of 2.74 µM, a TGI [39] greater than 100 µM and a GI50 [40] of 2.29 µM. The TGI [40] was 7.14 µM, the GI50 [41] was 1.66 µM and the TGI [41] was 4.2 µM. The GI50 [42] was 2.64 µM, the TGI [42] was greater than 100 µM and the GI50 [43] was 2.44 µM. It also gave a TGI [43] of 6.78 µM, a GI50 [44] of 3.1 µM and a TGI [44] of 21.6 µM. For the same molecule, the GI50 [45] was 3.15 µM, the TGI [45] was 11.5 µM and the GI50 [46] was 5.82 µM. For the same molecule, the TGI [46] was 48.6 µM, the GI50 [47] was 2.02 µM and the TGI [47] was 5.9 µM. The GI50 [48] was 2.85 µM, the TGI [48] was 9.3 µM and the GI50 [49] was 3.97 µM. It also gave a TGI [49] of 77.3 µM, a GI50 [50] of 2.31 µM and a TGI [50] of 6.48 µM. It also gave a GI50 [51] of 2.7 µM, a TGI [51] of 9.79 µM and a GI50 [52] of 3.75 µM. For the same molecule, the TGI [52] was 23.5 µM, the GI50 [53] was 2.28 µM and the TGI [53] was 6.16 µM. For the same molecule, the GI50 [54] was 1.81 µM, the TGI [54] was 4.51 µM and the GI50 [55] was 2.99 µM. The TGI [55] was 11.9 µM, the GI50 [56] was 3.69 µM and the TGI [56] was 14 µM. For the same molecule, the GI50 [57] was 3.05 µM and the TGI [57] was 11.5 µM.
